# Test results as given in patent US9096560B2, “5-heterocyclylalkyl-3-hydroxy-2-phenylcyclopent-2-enones as herbicides” (Syngenta Limited, priority 2008, dated 2015).
# Legend:
# Format in all cases: in vivo
# [1] = system: Alopecurus myosuroides (ALOMY); experiment: Example B post-emergence herbicidal test, ALOMY; details: rate 250 g/ha, evaluated after 13 days; for pest or weed control at 250 g/ha: Alopecurus myosuroides, 312 h, scale 0-100, read-out: Post-emergence activity ALOMY (100=total damage to plant; 0=no damage to plant)
# Method: (§1) Seeds of a variety of test species were sown in standard soil in pots. After cultivation for one day (pre-emergence) or after 8 days cultivation (post-emergence) under controlled conditions in a glasshouse (at 24/16° C., day/night; 14 hours light; 65% humidity), the plants were sprayed with an aqueous spray solution derived from the formulation of the technical active ingredient in acetone/water (50:50) solution containing 0.5% Tween 20 (polyoxyethelyene sorbitan monolaurate, CAS RN 9005-64-5). The test plants were then grown in a glasshouse under controlled conditions in a glasshouse (at 24/16° C., day/night; 14 hours light; 65% humidity) and watered twice daily. After 13 days for pre and post-emergence, the test was evaluated (100=total damage to plant; 0=no damage to plant). Lolium perenne (LOLPE), Alopecurus myosuroides (ALOMY), Echinochloa crus-galli (ECHCG), Avena fatua (AVEFA) Post-Emergence Activity
# Avena fatua (AVEFA) [2] = experiment: Example B pre-emergence herbicidal test, AVEFA; details: rate 250 g/ha, evaluated after 13 days, 100=total damage to plant, 0=no damage to plant; for pest or weed control at 250 g/ha: Avena fatua, 312 h
# Method: as §1, with “Pre-Emergence” for “Post-Emergence”
# Avena fatua (AVEFA) [3] = experiment: Example B post-emergence herbicidal test, AVEFA; details: rate 250 g/ha, evaluated after 13 days; for pest or weed control at 250 g/ha: Avena fatua, 312 h, scale 0-100, read-out: Post-emergence activity AVEFA (100=total damage to plant; 0=no damage to plant)
# Method: as §1
# Lolium perenne (LOLPE) [4] = experiment: Example B pre-emergence herbicidal test, LOLPE; details: rate 250 g/ha, evaluated after 13 days, 100=total damage to plant, 0=no damage to plant; for pest or weed control at 250 g/ha: Lolium perenne, 312 h
# Method: as §1, with “Pre-Emergence” for “Post-Emergence”
# Lolium perenne (LOLPE) [5] = experiment: Example B post-emergence herbicidal test, LOLPE; details: rate 250 g/ha, evaluated after 13 days; for pest or weed control at 250 g/ha: Lolium perenne, 312 h, scale 0-100, read-out: Post-emergence activity LOLPE (100=total damage to plant; 0=no damage to plant)
# Method: as §1
# [6] = system: Echinochloa crus-galli (ECHCG); experiment: Example B pre-emergence herbicidal test, ECHCG; details: rate 250 g/ha, evaluated after 13 days, 100=total damage to plant, 0=no damage to plant; for pest or weed control at 250 g/ha: Echinochloa crus-galli, 312 h
# Method: as §1, with “Pre-Emergence” for “Post-Emergence”
# [7] = system: Alopecurus myosuroides (ALOMY); experiment: Example B pre-emergence herbicidal test, ALOMY; details: rate 250 g/ha, evaluated after 13 days, 100=total damage to plant, 0=no damage to plant; for pest or weed control at 250 g/ha: Alopecurus myosuroides, 312 h
# Method: as §1, with “Pre-Emergence” for “Post-Emergence”
# [8] = system: Echinochloa crus-galli (ECHCG); experiment: Example B post-emergence herbicidal test, ECHCG; details: rate 250 g/ha, evaluated after 13 days; for pest or weed control at 250 g/ha: Echinochloa crus-galli, 312 h, scale 0-100, read-out: Post-emergence activity ECHCG (100=total damage to plant; 0=no damage to plant)
# Method: as §1
SMILES,pest or weed control at 250 g/ha [1] [%],pest or weed control at 250 g/ha (Avena fatua (AVEFA) [2]) [%],pest or weed control at 250 g/ha (Avena fatua (AVEFA) [3]) [%],pest or weed control at 250 g/ha (Lolium perenne (LOLPE) [4]) [%],pest or weed control at 250 g/ha (Lolium perenne (LOLPE) [5]) [%],pest or weed control at 250 g/ha [6] [%],pest or weed control at 250 g/ha [7] [%],pest or weed control at 250 g/ha [8] [%],Post-Emergence Activity ALOMY (100=total damage to plant; 0=no damage to plant) ([1]; scale 0-100),Pre-emergence activity AVEFA (damage to plant) (Avena fatua (AVEFA) [2]),Post-Emergence Activity AVEFA (100=total damage to plant; 0=no damage to plant) (Avena fatua (AVEFA) [3]; scale 0-100),Pre-emergence activity LOLPE (damage to plant) (Lolium perenne (LOLPE) [4]),Post-Emergence Activity LOLPE (100=total damage to plant; 0=no damage to plant) (Lolium perenne (LOLPE) [5]; scale 0-100),Pre-emergence activity ECHCG (damage to plant) [6],Pre-emergence activity ALOMY (damage to plant) [7],Post-Emergence Activity ECHCG (100=total damage to plant; 0=no damage to plant) ([8]; scale 0-100)
Cc1cc(C)c(C2=C(OC(=O)c3cccs3)CC(CC3CCN(C(=O)c4cccs4)C3)C2=O)c(C)c1 (centres unmarked) [Compound P61],90,30,90,90,90,80,50,90,–,–,–,–,–,–,–,–
Cc1cc(C)c(C2=C(OC(=O)c3c(C)noc3C)CC(CC3CCN(C(=O)c4c(C)noc4C)C3)C2=O)c(C)c1 (centres unmarked) [Compound P63],90,40,90,70,80,70,50,70,–,–,–,–,–,–,–,–
Cc1cc(C)c(C2=C(OC(=O)c3ccc(Cl)nc3)CC(CC3CCN(C(=O)c4ccc(Cl)nc4)C3)C2=O)c(C)c1 (centres unmarked) [Compound P64],100,70,100,80,90,80,70,90,–,–,–,–,–,–,–,–
CCC(=O)OC1=C(c2c(C)cc(C)cc2C)C(=O)C(CC2CCN(C(=O)CC)CC2)C1 (centres unmarked) [Compound P65],90,60,90,90,90,80,60,90,–,–,–,–,–,–,–,–
Cc1cc(C)c(C2=C(O)CC(CC3CCOCC3)C2=O)c(C)c1 (centres unmarked) [Compound P67],100,90,100,100,100,90,80,100,–,–,–,–,–,–,–,–
Cc1cc(C)c(C2=C(O)CC(CC3CCOCC3)C2=O)c(C)c1 (centres unmarked) [Compound P68],–,–,–,–,–,–,–,–,90,90,90,100,100,100,90,100
COc1ccc(C(=O)OC2=C(c3c(C)cc(C)cc3C)C(=O)CC2CC2CCOC2)cc1 (centres unmarked) [Compound P71],100,100,90,100,100,100,90,100,–,–,–,–,–,–,–,–
Cc1cc(C)c(C2C(=O)CC(C(O)C3CCOCC3)C2=O)c(C)c1 (centres unmarked) [Compound T3],40,50,70,60,70,20,50,70,–,–,–,–,–,–,–,–
Cc1cc(C)c(C2C(=O)CC(CC3CCS(=O)(=O)CC3)C2=O)c(C)c1 (centres unmarked) [Compound T7],100,50,90,80,80,100,70,90,–,–,–,–,–,–,–,–
Cc1cc(C)c(C2C(=O)C/C(=C\C3CCSCC3)C2=O)c(C)c1 (centres unmarked) [Compound T9],60,0,30,60,80,20,20,80,–,–,–,–,–,–,–,–
Cc1cc(C)c(C2C(=O)C/C(=C\C3CC[S+]([O-])CC3)C2=O)c(C)c1 (centres unmarked) [Compound T11],60,0,30,70,50,20,30,70,–,–,–,–,–,–,–,–
Cc1cc(C)c(C2C(=O)C/C(=C\C3CCN(Cc4ccccc4)CC3)C2=O)c(C)c1 (centres unmarked) [Compound T13],10,0,0,30,30,10,30,40,–,–,–,–,–,–,–,–
CC(=O)N1CCC(/C=C2\CC(=O)C(c3c(C)cc(C)cc3C)C2=O)CC1 (centres unmarked) [Compound T15],100,100,100,100,100,100,70,100,–,–,–,–,–,–,–,–
Cc1cc(C)c(C2C(=O)CC(CC3CCCO3)C2=O)c(C)c1 (centres unmarked) [Compound T18],80,70,70,100,100,100,100,90,–,–,–,–,–,–,–,–
Cc1cc(C)c(C2C(=O)CC(CCC3CCOCC3)C2=O)c(C)c1 (centres unmarked) [Compound T21],90,70,90,100,90,90,100,80,–,–,–,–,–,–,–,–
CON1CCC(CC2CC(=O)C(c3c(C)cc(C)cc3C)C2=O)CC1 (centres unmarked) [Compound T23],90,100,100,100,100,100,100,100,–,–,–,–,–,–,–,–
CC(=O)N1CCC(CC2CC(=O)C(c3c(C)cc(C)cc3C)C2=O)CC1 (centres unmarked) [Compound T24],90,90,100,100,100,100,100,100,–,–,–,–,–,–,–,–
Cc1cc(C)c(C2C(=O)CC(CC3CCC(C)O3)C2=O)c(C)c1 (centres unmarked) [Compound T26],60,60,70,100,80,100,70,60,–,–,–,–,–,–,–,–
Cc1cc(C)c(C2C(=O)CC(C)(C(O)C3CCOCC3)C2=O)c(C)c1 (centres unmarked) [Compound T27],70,60,70,100,80,80,90,80,–,–,–,–,–,–,–,–
